Assay results taken from ChEMBL document CHEMBL1143218 (Bioorg Med Chem Lett, 2008).

How the values were obtained:
[1] = target: Sodium-dependent dopamine transporter (Homo sapiens, UniProt Q01959)
[2] = target: Sodium-dependent serotonin transporter (Homo sapiens, UniProt P31645)
Chain of Sodium-dependent serotonin transporter (P31645 whole entry): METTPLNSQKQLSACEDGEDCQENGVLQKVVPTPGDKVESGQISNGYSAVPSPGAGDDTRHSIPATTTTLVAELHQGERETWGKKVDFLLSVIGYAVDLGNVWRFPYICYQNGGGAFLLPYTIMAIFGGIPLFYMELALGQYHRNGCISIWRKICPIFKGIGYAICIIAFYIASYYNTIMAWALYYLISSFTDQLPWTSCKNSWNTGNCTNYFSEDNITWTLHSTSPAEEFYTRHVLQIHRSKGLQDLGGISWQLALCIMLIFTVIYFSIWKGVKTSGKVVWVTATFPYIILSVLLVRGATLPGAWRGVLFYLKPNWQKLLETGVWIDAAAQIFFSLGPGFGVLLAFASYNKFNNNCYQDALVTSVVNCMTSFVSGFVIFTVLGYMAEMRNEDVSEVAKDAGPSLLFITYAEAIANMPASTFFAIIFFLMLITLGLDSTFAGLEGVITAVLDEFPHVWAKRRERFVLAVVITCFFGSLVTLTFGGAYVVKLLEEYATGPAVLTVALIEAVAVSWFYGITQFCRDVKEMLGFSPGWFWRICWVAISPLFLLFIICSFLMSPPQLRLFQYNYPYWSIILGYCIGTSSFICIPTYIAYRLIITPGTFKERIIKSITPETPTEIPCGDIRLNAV

Chain of Sodium-dependent dopamine transporter (Q01959 whole entry): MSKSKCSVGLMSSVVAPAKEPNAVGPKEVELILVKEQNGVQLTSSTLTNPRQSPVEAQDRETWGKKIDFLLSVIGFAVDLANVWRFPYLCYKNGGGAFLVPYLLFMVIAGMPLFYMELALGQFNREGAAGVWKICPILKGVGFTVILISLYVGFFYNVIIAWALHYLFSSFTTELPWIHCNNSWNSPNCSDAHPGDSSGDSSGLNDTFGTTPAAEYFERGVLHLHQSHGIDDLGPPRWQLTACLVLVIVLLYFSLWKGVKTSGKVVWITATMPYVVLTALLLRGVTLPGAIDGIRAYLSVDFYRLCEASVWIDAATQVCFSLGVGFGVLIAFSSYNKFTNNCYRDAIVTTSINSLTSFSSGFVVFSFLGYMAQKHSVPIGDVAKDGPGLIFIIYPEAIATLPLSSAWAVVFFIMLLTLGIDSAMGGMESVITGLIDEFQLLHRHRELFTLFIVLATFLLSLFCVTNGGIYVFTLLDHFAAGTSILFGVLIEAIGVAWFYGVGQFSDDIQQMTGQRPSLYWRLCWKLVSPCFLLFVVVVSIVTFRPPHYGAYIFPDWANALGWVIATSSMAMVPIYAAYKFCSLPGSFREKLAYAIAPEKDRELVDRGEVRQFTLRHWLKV

Structure (SMILES)	IC50 [1] [µM]	IC50 [2] [µM]
CCNC(=O)[C@@]1(c2ccccc2)CC1CN (mixture of isomers)	> 10	> 10
CC(C)N(C(=O)[C@@]1(c2ccccc2)CC1CN)C(C)C (mixture of isomers)	> 10	> 10
NCC1C[C@@]1(C(=O)N1CCCC1)c1ccccc1 (mixture of isomers)	> 10	
CCN(CC)C(=O)[C@@]1(c2ccccc2)CC1CNC (mixture of isomers)	> 10	5.4
CCN(CC)C(=O)[C@@]1(c2ccccc2)C[C@H]1CNC(=O)CN (racemic)	> 10	2.2
NCC1CC1(C(=O)N1CCOCC1)c1ccccc1 (racemic)	7.4	1.7
NCC1CC1(C(=O)N1CCCCC1)c1ccccc1 (racemic)	4.6	1.2
CCN(CC)C(=O)C1(c2ccccc2)CC1CNCC(OC)OC (racemic)	> 10	1.1
CCCCN(CC)C(=O)C1(c2ccccc2)CC1CN (racemic)	> 10	2
CCN(CC)C(=O)C1(c2ccccc2)CC1CNCc1ncco1 (racemic)	> 10	1.6
CCN(Cc1ccccc1)C(=O)C1(c2ccccc2)CC1CN (racemic)	> 10	0.16
NCC1CC1(C(=O)C1NCCc2ccccc21)c1ccccc1 (racemic)	> 10	
CC(C)N(C(=O)C1(c2ccccc2)CC1CNC(=O)CN)C(C)C (racemic)	4.6	> 10
CCN(CC)C(=O)C1(c2ccccc2)CC1CNCc1ccncc1 (racemic)	> 10	> 10
C=CCN(CC)C(=O)C1(c2ccccc2)CC1CN (racemic)	> 10	0.28
NCC1CC1(C(=O)N1CCc2ccccc21)c1ccccc1 (racemic)	3.9	0.013
NCC1CC1(C(=O)NCc1ccccc1)c1ccccc1 (racemic)	> 10	3.2
CCN(C)C(=O)C1(c2ccccc2)CC1CN (racemic)	2.4	0.83
CCN(CC)C(=O)C1(c2ccccc2)CC1CNCc1cccnc1 (racemic)	> 10	> 10
CCN(CC)C(=O)C1(c2ccccc2)CC1CNCc1ccc[nH]1 (racemic)	> 10	4.4

Structure (SMILES)	IC50 [1] [µM]	IC50 [2] [µM]
CCN(CC)C(=O)C1(c2ccccc2)CC1CNCc1ccco1 (racemic)	> 10	> 10
NCC1CC1(C(=O)N1CCCCCC1)c1ccccc1 (racemic)	> 10	0.64
CCN(CC)C(=O)C1(c2ccccc2)CC1CNCc1cnco1 (racemic)	> 10	4.8
CCN(C(=O)C1(c2ccccc2)CC1CN)C(C)(C)C (racemic)	> 10	> 10
CCCCNCC1CC1(C(=O)N(CC)CC)c1ccccc1 (racemic)	> 10	> 10
CCNCC1CC1(C(=O)N(CC)CC)c1ccccc1 (racemic)	> 10	1.3
NCC1CC1(C(=O)Nc1ccccc1)c1ccccc1 (racemic)	> 10	> 10
CCN(CC)C(=O)C1(c2ccccc2)CC1CNCC(C)C (racemic)	> 10	> 10
CCN(CC)C(=O)C1(c2ccccc2)CC1CNCc1ccccn1 (racemic)	6.2	3.5
CCN(CCOC)C(=O)C1(c2ccccc2)CC1CN (racemic)	> 10	1.3
CCN(C(=O)C1(c2ccccc2)CC1CN)C1CCCCC1 (racemic)	> 10	7.5
CCCN(CC)C(=O)C1(c2ccccc2)CC1CN (racemic)	> 10	1.7
CCN(C(=O)C1(c2ccccc2)CC1CN)c1ccccc1 (racemic)	> 10	4.4
CCN(CC)C(=O)C1(c2ccccc2)CC1CNCC1CCCC1 (racemic)	> 10	> 10
NCC(=O)NCC1CC1(C(=O)C1NCCc2ccccc21)c1ccccc1 (racemic)	> 10	
NCC(=O)NCC1CC1(C(=O)N1CCc2ccccc21)c1ccccc1 (racemic)	> 10	0.077
NCC1CC1(C(=O)N1CCCc2ccccc21)c1ccccc1 (racemic)	> 10	0.1
NCC1CC1(C(=O)NC1CC1)c1ccccc1 (racemic)	> 10	> 10
CCN(CC)C(=O)C1(c2ccccc2)CC1CN(C)C (racemic) [N,N-DIMETHYL MILNACIPRAN]	4.5	> 10
